# Measured values published in patent publication US5981521A, “Tetrahydroisoquinoline derivatives as LHRH antagonists” (Abbott Laboratories, priority 1998, dated 1999).
# Where a name gives a salt, the structure may show the parent alone.
# Target: T1, LHRH rat pituitary receptor (Rattus norvegicus, UniProt P30969)
# T1 construct: from tissue; host or cells: rat pituitary
# T1 sequence (P30969 1-327): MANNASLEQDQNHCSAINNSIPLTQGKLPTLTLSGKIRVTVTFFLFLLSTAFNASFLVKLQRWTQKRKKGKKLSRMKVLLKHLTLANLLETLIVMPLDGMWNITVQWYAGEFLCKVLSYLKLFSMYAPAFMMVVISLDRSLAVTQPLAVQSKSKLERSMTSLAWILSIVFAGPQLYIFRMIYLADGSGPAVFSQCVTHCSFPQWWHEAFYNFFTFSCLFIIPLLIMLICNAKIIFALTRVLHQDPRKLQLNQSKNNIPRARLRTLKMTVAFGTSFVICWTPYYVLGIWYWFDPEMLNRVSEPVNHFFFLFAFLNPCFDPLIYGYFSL
# Test: LHRH rat pituitary receptor binding
# Conditions: Table 1: compounds of formula (V), by n and R1
# Procedure: Representative compounds of the present invention were evaluated in vitro for potency against for LHRH rat pituitary receptor binding [pK, ]. Methods for the assay procedures are 10 described in […] al. J Med. Chem., 32: 2340-2344 (1989). Values of pK, are the negative logarithms of the equilibrium dissociation constant of the particular antagonist test compound for the receptor binding. […] Leuprolide LHRH agonist, disclosed and claimed in U.S. Pat. No. 4,005, 063, has the structure 5-oxo-[…].
Compound,Ki [nM],pKI
"CCC1c2cc(OC)c(OC)cc2CCN1CCCC(CCCNC(=O)CCc1ccc(F)cc1)(c1ccccc1)c1ccccc1 (stereo not shown) [Example 5, 7-[N-3-(4-Fluorophenyl)Propionyl]amino-1-[N-(1,2,3,4-tetrahydro-1-ethyl-6.7-dimethoxyisoquinolinyl)]1-4.4-diphenylheptane hydrochloride]",1.58,
"COc1cc2c(cc1OC)C(c1ccccc1)N(CCCC(CCCNC(=O)CCc1ccc(F)cc1)(c1ccccc1)c1ccccc1)CC2 (stereo not shown) [Example 7, 7-[N-3-(4-Fluorophenyl)propionyl]amino-1-[N-(1,2,3,4-tetrahydro-1-phenyl-6,7-dimethoxyisoquinolinyl)]1-4.4-diphenylheptane hydrochloride]",45.7,
"COc1cc2c(cc1OC)C(Cc1ccc(N)cc1)N(CCCC(CCCNC(=O)CCc1ccc(F)cc1)(c1ccccc1)c1ccccc1)CC2 (stereo not shown) [Example 21, 7-[N-3-(4-Fluorophenol)propionyl]amino-1-F(N-[1,2,3,4-tetrahydro-1-(4-aminobenzyl)-6,7-dimethoxyisoguinolinyl)1-4.4-diphenylheptanedihydrochloride]",0.0724,
"COc1cc2c(cc1OC)C(CCCCNC(=O)c1cccnc1)N(CCCC(CCCNC(=O)CCc1ccc(F)cc1)(c1ccccc1)c1ccccc1)CC2 (stereo not shown) [Example 35, 7-[N-3-(4-Fluorophenyl)propionyl]amino-1-[N-(1,2,3,4-tetrahydro-1-(4-N-nicotinylamino)-butyl-6,7-dimethoxyisoguinolinyll-4,4-diphenylheptane hydrochloride]",2.45,
"COc1ccc(CC2c3cc(OC)c(OC)cc3CCN2CCCC(CCCNC(=O)CCc2ccc(F)cc2)(c2ccccc2)c2ccccc2)cc1 (stereo not shown) [Example 19, 7-[N-3-(4-Fluorophenyl)propionyl]amino-1-[N-(1,2,3,4-tetrahydro-1-(4-methoxybenzyl)-6,7-dimethoxyisoguinolinyl)1-4.4-diphenylheptane hydrochloride]",5.89,
"COc1cc2c(cc1OC)C(c1ccc(N)cc1)N(CCCC(CCCNC(=O)CCc1ccc(F)cc1)(c1ccccc1)c1ccccc1)CC2 (stereo not shown) [Example 15, 7-[N-3-(4-Fluorophenyl)propionyl]amino-1-[N-(1.2.3 .4-tetrahydro-1-(4-aminophenyl)-6,7-dimethoxyisoguinolinyl)1-4.4-diphenylheptanedihydrochloride]",2.95,
"COCC1c2cc(OC)c(OC)cc2CCN1CCCC(CCCNC(=O)CCc1ccc(F)cc1)(c1ccccc1)c1ccccc1 (stereo not shown) [Example 12, 7-[N-3-(4-Fluorophenyl)propionyl]amino-1-[N-(1,2,3,4-tetrahydro-1-methoxymethyl-6,7-dimethoxyisoguinolinyl)]-4,4-diphenylhelptane hydrochloride]",8.32,
"COc1cc2c(cc1OC)C(CCc1ccccc1)N(CCCC(CCCNC(=O)CCc1ccc(F)cc1)(c1ccccc1)c1ccccc1)CC2 (stereo not shown) [Example 20, 7-[N-3-(4-Fluorophenyl)propionyl]amino-1-[N-(1,2,3,4-tetrahydro-1-phenethyl-6,7-dimethoxy - isoguinolinyl)]-4,4-diphenylheptane hydrochloride]",25.1,
"COc1cc2c(cc1OC)C(CCCCN(CC1CC1)CC1CC1)N(CCCC(CCCNC(=O)CCc1ccc(F)cc1)(c1ccccc1)c1ccccc1)CC2 (stereo not shown) [Example 32, 7-[N-3-(4-Fluorophenyl)pronionyl]amino-1-N-(1,2,3,4-tetrahydro-1-(4-N. N-dicycloprovylmethylamino)butyl-6,7-dimethoxyisoguinolinyl)1-4,4-diphenylheptane dihydrochloride]",0.631,

# The next lines start with the values.
Ki [nM],pKI,Compound
,8.27,"7-[N-3-(4-Fluorophenyl)propionyl]-1-[N-(1,2,3,4-tetrahydro-1-(4-N-phthalimidomethyl)cyclohexyl-6,7-dimethoxyisoguinolinyl)1-4.4-diphenylheptane hydrochloride [Example 36]"
70.8,,COc1cc2c(cc1OC)C(C)N(CCC(CCCNC(=O)CCc1ccc(F)cc1)(c1ccccc1)c1ccccc1)CC2 (stereo not shown) [Example 44]
35.5,,COc1cc2c(cc1OC)C(C)N(CCCCC(CCCNC(=O)CCc1ccc(F)cc1)(c1ccccc1)c1ccccc1)CC2 (stereo not shown) [Example 45]

# Same assay, conditions: Table 2: compounds of formula (VI), by isoquinolinyl moiety R
Ki [nM],pKI,Compound
1.7,,"COc1cc2c(cc1F)CCN(CCCC(CCCNC(=O)CCc1ccc(F)cc1)(c1ccccc1)c1ccccc1)C2C (stereo not shown) [Example 60, 7-[N-3-(4-Fluorophenyl)propionyl]-1-[N-(1,2,3,4-tetrahydro-1-methyl-6-fluoro-7-methoxyisoguinofinyl)1-4.4-diphenylheptane hydrochloride]"
3.55,,"CC1c2cc(Cl)ccc2CCN1CCCC(CCCNC(=O)CCc1ccc(F)cc1)(c1ccccc1)c1ccccc1 (stereo not shown) [Example 52, 7-[N-3-(4-Fluorophenyl)propionyl]-1-[N-(1,2,3,4-tetrahydro-1-methyl-7-chloro-isoguinolinyl)-4,4-dithenylhepMtane hydrochloride]"
2.51,,"COc1cc2c(cc1OC)C(C)(C)N(CCCC(CCCNC(=O)CCc1ccc(F)cc1)(c1ccccc1)c1ccccc1)CC2 [Example 67, 7-[N-3-(4-Fluorophenyl)propionyl]-1-[N-(1,2,3,4-tetrahydro-1.1-dimethyl-6,7-dimethoxyisoguinolinyl)1-4.4-diphenylheptane hydrochloride]"
,8.60,"CC1c2cc(F)c(Cl)cc2CCN1CCCC(CCCNC(=O)CCc1ccc(F)cc1)(c1ccccc1)c1ccccc1 (stereo not shown) [Example 57, 7-[N-3-(4-Fluorophenyl)propionyl]-1-[N-(1,2,3,4-tetrahydro-1-methyl-6-chloro-7-fluoroisoquinolinyl)1-4.4-diphenylheptane hydrochloride]"
8.71,,"CC(=O)Nc1ccc2c(c1)C(C)N(CCCC(CCCNC(=O)CCc1ccc(F)cc1)(c1ccccc1)c1ccccc1)CC2 (stereo not drawn) [Example 55, 7-[N-3-(4-Fluorophenyl)propionyl]-1-[N-(1,2,3,4-tetrahydro-l-methyl-7-acetylamino-isoquinolinyl)1-4.4-diphenylheptane hydrochloride]"
2.51,,"COc1ccc2c(c1)C(C)N(CCCC(CCCNC(=O)CCc1ccc(F)cc1)(c1ccccc1)c1ccccc1)C(C)C2 (stereo not shown) [Example 68, 7-[N-3-(4-Fluorophenyl)propionyl]-1-rN-(1,2,3,4-tetrahydro-1.3-dimethyl-7-methoxyisoquinolinyl)1-4.4-diphenylheiltane hydrochloride]"
3.72,,"COc1cc2c(cc1Br)C(C)N(CCCC(CCCNC(=O)CCc1ccc(F)cc1)(c1ccccc1)c1ccccc1)CC2 (stereo not shown) [Example 61, 7-[N-3-(4-Fluorophenyl)propionyl]-1-[N-(1,2,3,4-tetrahydro-1-methyl-6-methoxy-7-bromoisoguinolinyl)1-4.4-diphenylheptane hydrochloride]"
3.72,,"CC1c2cc(Cl)c(Cl)cc2CCN1CCCC(CCCNC(=O)CCc1ccc(F)cc1)(c1ccccc1)c1ccccc1 (stereo not shown) [Example 56, 7-[N-3-(4-Fluorophenyl)propionyl]-1-[N-(1,2,3,4-tetrahydro-1-methyl-6,7-dichloro-isoquinolinyl)1-4.4-diphenylheptane hydrochloride]"

# Same assay, conditions: Table 3: compounds of formula (VII), by substituent R'
row,Ki [nM],Compound
1,3.98,COc1cc2c(cc1OC)C(C)N(CCCC(CCCNC(=O)CCc1ccc(F)c(Cl)c1)(c1ccccc1)c1ccccc1)CC2 (stereo not shown) [Example 76]
2,2.19,COc1cc2c(cc1OC)C(C)N(CCCC(CCCNC(=O)CCc1ccc(Cl)c(Cl)c1)(c1ccccc1)c1ccccc1)CC2 (stereo not shown) [Example 73]
